The results in this text go back to ChEMBL document CHEMBL5042471, “Development and Application of Subtype-Selective Fluorescent Antagonists for the Study of the Human Adenosine A1 Receptor in Living Cells” (J Med Chem, 2021).

The target of assay [1] is T1, Adenosine receptor A1 (Homo sapiens, UniProt P30542).
T1 sequence (P30542 whole entry): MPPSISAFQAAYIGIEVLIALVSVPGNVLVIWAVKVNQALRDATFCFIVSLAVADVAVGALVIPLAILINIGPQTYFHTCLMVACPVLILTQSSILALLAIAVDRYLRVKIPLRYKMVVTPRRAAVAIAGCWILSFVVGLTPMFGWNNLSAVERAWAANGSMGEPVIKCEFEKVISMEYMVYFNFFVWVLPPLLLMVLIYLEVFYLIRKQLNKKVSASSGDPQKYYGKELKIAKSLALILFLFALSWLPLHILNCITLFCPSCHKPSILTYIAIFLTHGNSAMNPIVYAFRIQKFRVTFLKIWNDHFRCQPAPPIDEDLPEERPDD
The assay can be described thus: Binding affinity to N-terminal NLuc tagged human A1 adenosine receptor expressed in Flp-In-CHO cells by competitive binding assay. Format: cell-based.

Assay [2] deals with T2, Adenosine receptor A1 (Rattus norvegicus, UniProt P25099).
T2 sequence (P25099 whole entry): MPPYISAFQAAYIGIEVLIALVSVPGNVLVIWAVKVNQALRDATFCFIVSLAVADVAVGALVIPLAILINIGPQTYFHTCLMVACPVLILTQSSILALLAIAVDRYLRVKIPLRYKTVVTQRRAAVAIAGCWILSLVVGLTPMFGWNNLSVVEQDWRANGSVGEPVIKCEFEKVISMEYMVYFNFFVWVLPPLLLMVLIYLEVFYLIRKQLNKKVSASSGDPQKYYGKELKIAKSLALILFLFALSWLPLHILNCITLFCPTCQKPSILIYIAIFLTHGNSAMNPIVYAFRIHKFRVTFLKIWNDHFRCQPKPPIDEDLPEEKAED
The assay can be described thus: Binding affinity to N-terminal NLuc tagged rat A1 adenosine receptor expressed in Flp-In-CHO cells by competitive binding assay. Type of assay: cell-based.

Assay [3] has as its target T3, Adenosine receptor A3 (Homo sapiens, UniProt P0DMS8).
T3 sequence (P0DMS8 whole entry): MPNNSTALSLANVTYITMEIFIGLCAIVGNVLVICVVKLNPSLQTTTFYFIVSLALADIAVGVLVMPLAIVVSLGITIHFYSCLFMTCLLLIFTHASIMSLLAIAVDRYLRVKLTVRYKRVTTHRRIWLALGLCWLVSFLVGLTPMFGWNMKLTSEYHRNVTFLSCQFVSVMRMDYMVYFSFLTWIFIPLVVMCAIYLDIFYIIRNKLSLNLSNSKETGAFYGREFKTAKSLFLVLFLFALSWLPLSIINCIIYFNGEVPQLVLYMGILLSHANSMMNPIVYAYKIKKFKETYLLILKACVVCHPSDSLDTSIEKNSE
The experiment in a line: Antagonist activity at N-terminal NLuc tagged human A3 adenosine receptor. Type of assay: functional.

Assay [4] concerns the target T3, Adenosine receptor A3. The assay can be described thus: Agonist activity at A3 adenosine receptor (unknown origin). Format: functional.
The target in assay [5] is T3, Adenosine receptor A3. The assay can be described thus: Agonist activity at human A3 adenosine receptor expressed in Flp-In-CHO cells assessed as calcium influx by competitive binding assay. Format: functional, cell-based.

The structures appear in SMILES notation.

Take `CCCn1c(=O)c2[nH]c(-c3ccc(OCC(=O)NCCNC(=O)CCNC(=O)CCCCNC(=O)CCCCNC(=O)COc4ccc(/C=C/C5=[N+]6C(=Cc7ccc(-c8cccs8)n7[B-]6(F)F)C=C5)cc4)cc3)nc2n(CCC)c1=O`: the Kd at Adenosine receptor A1 [1] is 33.9 nM; on Adenosine receptor A1 [2], 35.5 nM.
In turn, `CCCn1c(=O)c2[nH]c(-c3ccc(OCC(=O)NCCNC(=O)CCCCNC(=O)COc4ccc(/C=C/C5=[N+]6C(=Cc7ccc(-c8cccs8)n7[B-]6(F)F)C=C5)cc4)cc3)nc2n(CCC)c1=O` gave an equilibrium dissociation constant (Kd) at Adenosine receptor A3 [3] of 30.9 nM. The same molecule showed a Ki at Adenosine receptor A1 [1] of 9.33 nM.
With `O=C(CCCCCNC(=O)COc1ccc(/C=C/C2=[N+]3C(=Cc4ccc(-c5cccs5)n4[B-]3(F)F)C=C2)cc1)NCCCCNc1ncnc2c1ncn2[C@@H]1O[C@H](CO)[C@@H](O)[C@H]1O`, the half-maximal effective concentration (EC50) was 50.1 nM at Adenosine receptor A3 [4] and 1260 nM at Adenosine receptor A3 [5].

For orientation: Kd means the constant that tells how readily two partners part at equilibrium. The Ki is a measure of affinity in units of concentration, obtained from inhibition or displacement. The EC50 is the concentration giving half of the maximal effect.
